Data published in publication PMC4654778 (Clinical cancer research : an official journal of the …, 2012).

Tests used:
FGFR-4 = FGFR-4 (Homo sapiens, UniProt P22455, G388R); format: cell-based
FGFR-1 = FGFR-1 (Homo sapiens, UniProt P11362); format: cell-based
Sequence of FGFR-1 (P11362 22-822): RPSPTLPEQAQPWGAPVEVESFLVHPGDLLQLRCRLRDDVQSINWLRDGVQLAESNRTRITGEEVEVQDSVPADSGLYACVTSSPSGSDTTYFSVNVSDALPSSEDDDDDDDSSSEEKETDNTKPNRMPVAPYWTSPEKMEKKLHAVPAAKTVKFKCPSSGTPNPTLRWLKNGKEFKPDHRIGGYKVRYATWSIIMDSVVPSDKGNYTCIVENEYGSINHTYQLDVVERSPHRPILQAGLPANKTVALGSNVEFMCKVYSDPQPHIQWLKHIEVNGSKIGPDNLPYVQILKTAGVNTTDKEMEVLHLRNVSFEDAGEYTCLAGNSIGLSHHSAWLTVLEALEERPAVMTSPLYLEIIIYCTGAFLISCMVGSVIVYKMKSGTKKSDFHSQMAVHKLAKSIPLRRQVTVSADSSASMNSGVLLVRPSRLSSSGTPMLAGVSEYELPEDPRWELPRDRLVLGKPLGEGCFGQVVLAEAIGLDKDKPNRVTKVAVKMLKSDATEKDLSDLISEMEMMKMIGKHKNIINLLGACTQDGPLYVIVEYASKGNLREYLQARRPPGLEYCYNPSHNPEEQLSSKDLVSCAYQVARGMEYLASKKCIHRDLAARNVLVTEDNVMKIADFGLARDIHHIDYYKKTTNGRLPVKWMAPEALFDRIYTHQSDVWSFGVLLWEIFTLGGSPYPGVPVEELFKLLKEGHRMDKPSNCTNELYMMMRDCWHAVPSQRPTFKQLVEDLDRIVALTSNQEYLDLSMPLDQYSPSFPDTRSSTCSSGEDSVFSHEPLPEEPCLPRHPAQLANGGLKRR

Sequence of FGFR-4 (P22455 22-802 G388R): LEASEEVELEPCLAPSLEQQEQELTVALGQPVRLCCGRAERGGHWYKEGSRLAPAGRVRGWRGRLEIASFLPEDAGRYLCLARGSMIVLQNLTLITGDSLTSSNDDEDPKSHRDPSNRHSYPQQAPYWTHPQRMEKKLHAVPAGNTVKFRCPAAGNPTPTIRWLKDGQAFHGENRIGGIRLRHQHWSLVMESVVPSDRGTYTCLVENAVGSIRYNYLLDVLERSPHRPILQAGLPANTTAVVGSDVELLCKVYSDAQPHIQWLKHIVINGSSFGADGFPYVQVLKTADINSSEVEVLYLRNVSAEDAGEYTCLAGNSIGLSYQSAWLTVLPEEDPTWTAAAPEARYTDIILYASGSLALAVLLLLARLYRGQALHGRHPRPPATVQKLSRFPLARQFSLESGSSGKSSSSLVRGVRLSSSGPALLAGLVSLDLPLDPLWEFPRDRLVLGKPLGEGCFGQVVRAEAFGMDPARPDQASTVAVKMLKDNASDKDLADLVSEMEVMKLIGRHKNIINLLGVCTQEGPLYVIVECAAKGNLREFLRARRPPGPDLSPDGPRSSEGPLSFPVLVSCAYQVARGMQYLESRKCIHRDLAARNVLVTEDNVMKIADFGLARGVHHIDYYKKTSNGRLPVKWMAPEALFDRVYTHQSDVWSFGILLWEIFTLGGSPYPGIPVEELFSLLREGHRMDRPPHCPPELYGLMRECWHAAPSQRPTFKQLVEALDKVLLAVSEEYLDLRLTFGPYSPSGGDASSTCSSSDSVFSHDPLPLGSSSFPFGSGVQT

Substance: AZ8010
- % inhibition at 100 nM (FGFR-4): 75
- % inhibition at 100 nM (FGFR-1): 86
